The values below come from ChEMBL document CHEMBL5308541, “MAIP: An Open-Source Tool to Enrich High-Throughput Screening Output and Identify Novel, Druglike Molecules with Antimalarial Activity” (ACS Med Chem Lett, 2023).

By IC50 is commonly meant the point on the concentration scale where inhibition reaches its midpoint. A low value points to inhibition by little substance.

Molecules are shown by their SMILES. Where “and” joins values, the source holds several entries; their conditions need not be identical. Equal entries are not always repeated. Bounds are passed on as bounds.

Data set [1] has as its system Plasmodium falciparum. The data set is described as follows: Hit confirmation in dose-response curve in Dd2 pLDH assay, at 72h. In kind it is functional, organism-based, Erythrocyte. On the set-up: timepoint 72 hour. The settings on record: Plasmodium falciparum, Dd2, Erythrocyte, 72 h.
For data set [2], the system named is Plasmodium falciparum. The data set is described as follows: Re-testing in dose-response curve in 3D7 pLDH assay, at 72h. In kind it is functional, organism-based, Erythrocyte. On the set-up: timepoint 72 hour.
Data set [3] in a line: Hit confirmation in dose-response curve in HepG2 cytotoxicity assay, at 72h. In kind it is toxicity, cell-based, Homo sapiens. Particulars: human, HepG2 cells. On the set-up: timepoint 72 hour.
The next data set has as its system HepG2. The data set is described as follows: (§1) Re-testing in dose-response curve in HepG2 cytotoxicity assay, at 72h. The settings on record: hepg2. In kind it is toxicity, cell-based, Homo sapiens. On the set-up: timepoint 72 hour.
The nature of data set [4]: as §1. The settings on record: human, HepG2 cells. The format is toxicity, cell-based, Homo sapiens. Details: timepoint 72 hour.
The subject of data set [5] is Plasmodium falciparum. The data set is described as follows: Hit confirmation in dose-response curve in NF54 pLDH assay, at 72h. The format is functional, organism-based, Erythrocyte. On the set-up: timepoint 72 hour. The settings on record: Plasmodium falciparum, NF54, Erythrocyte, 72 h.
Data set [6] deals with Plasmodium falciparum. The data set is described as follows: Hit confirmation in dose-response curve in NF54 nanoGlo assay, at 12h. The format is functional, organism-based, Erythrocyte. On the set-up: timepoint 12 hour. The settings on record: Plasmodium falciparum, NF54, Erythrocyte, 12 h.
In data set [7] the test system is Plasmodium falciparum. The data set is described as follows: Hit confirmation in dose-response curve in NF54 nanoGlo assay, at 72h. On the set-up: timepoint 72 hour. Particulars: Plasmodium falciparum, NF54, Erythrocyte, 72 h. The format is functional, organism-based, Erythrocyte.
For data set [8], the system named is Plasmodium falciparum. The data set is described as follows: Re-testing in dose-response curve in Dd2 pLDH assay, at 72h. In kind it is functional, organism-based, Erythrocyte. On the set-up: timepoint 72 hour. Particulars: erythrocyte.
The mark [9] stands for this setting: Plasmodium falciparum, 3D7, Erythrocyte, 72 h.

For `Fc1ccc(-n2cc(CNCCC3CCN(c4ccncc4)CC3)cn2)cc1`, the half-inhibitory concentration (IC50) was 1.29 µM with Plasmodium falciparum [1]; 0.391 µM with Plasmodium falciparum [2] (setting [9]); about 0.385 µM in the data set on Plasmodium falciparum [2] (erythrocyte); 5.84 µM with HepG2; 1.74 µM in the data set on Plasmodium falciparum [5]; 3.55 µM in the data set with Plasmodium falciparum [6]. In addition, the half-inhibitory concentration (IC50) in the data set on Plasmodium falciparum [7] turned out to be 1.58 µM. Further, the results for the 50% inhibitory concentration (IC50) at 72 h in [3] and in [4] were over 10 µM and 5.11 µM, respectively.

In the case of `Brc1ccc2[nH]c3c(c2c1)CCCC3NC1CCc2[nH]cnc2C1` (configuration not stated), the IC50 was 1.7 µM in the data set with Plasmodium falciparum [1]; about 3.04 µM in the data set with Plasmodium falciparum [2] (setting [9]); 3.4 µM with Plasmodium falciparum [2] (erythrocyte); 4.23 µM in the data set with HepG2; 2.34 µM in the data set on Plasmodium falciparum [5]; 1.74 µM in the data set with Plasmodium falciparum [6]. Also, the midpoint of inhibition in the data set on Plasmodium falciparum [7], the IC50, lay at 1.35 µM. Further, the IC50 at 72 h in [3] was over 10 µM; in data set [4] it was 4.1 µM.

On to `c1ccc(-c2ccnc(C3CCN(CC45CNCC4C5)CC3)n2)cc1` (configuration not stated), for which the IC50 was determined as 1.86 µM with Plasmodium falciparum [1]; 0.714 µM with Plasmodium falciparum [2] (setting [9]); 0.859 µM with Plasmodium falciparum [2] (erythrocyte); 1.91 µM with Plasmodium falciparum [5]; 2.88 µM with Plasmodium falciparum [6]; 1.62 µM in the data set with Plasmodium falciparum [7]. In the data set on Plasmodium falciparum [8], this compound came in with a half-maximal inhibitory concentration (IC50) of 1.59 µM. Further, the IC50 at 72 h in data set [3] was over 10 µM.

On to `Cc1c(CN2CCC(O)(Cn3ccnc3)CC2)[nH]c2c(Cl)cccc12`, for which the IC50 in the data set on Plasmodium falciparum [2] (erythrocyte) is 1.65 µM and 1.32 µM and 1.38 µM; in the data set with HepG2, 20.3 µM; in the data set with Plasmodium falciparum [5], 1.95 µM; in the data set on Plasmodium falciparum [6] it was 2.63 µM; with Plasmodium falciparum [7], 1.7 µM. For the same compound, the 50% inhibitory concentration (IC50) at 72 h in data set [3] was over 10 µM.

For the compound `N#Cc1ccc(N2C[C@H](COCC3CC3)C3(CCN(Cc4cccc(O)c4)CC3)C2)cc1C(F)(F)F`, the IC50 was 2.69 µM in the data set with Plasmodium falciparum [1], 2.69 µM with Plasmodium falciparum [5], 4.68 µM in the data set on Plasmodium falciparum [6] and 1.78 µM with Plasmodium falciparum [7]. Moreover, the IC50 at 72 h in data set [3] is over 10 µM.

With `O[C@@]1(c2c[nH]nn2)CCN(c2ccnc3cc(Cl)ccc23)C1`, the half-inhibitory concentration (IC50) in the data set on Plasmodium falciparum [1] came out at 3.8 µM; with Plasmodium falciparum [5], 5.13 µM; in the data set on Plasmodium falciparum [6], 5.13 µM; in the data set on Plasmodium falciparum [7], 2.75 µM. This compound also gave an IC50 at 72 h in data set [3] of over 10 µM.

As for `Fc1ccc(N2CC[C@H](CN3CCC(c4c[nH]c5ccccc45)(c4c[nH]c5ccccc45)CC3)C2)cc1`, the IC50 in the data set on Plasmodium falciparum [1] amounted to 4.27 µM; in the data set with Plasmodium falciparum [5], 6.61 µM; in the data set on Plasmodium falciparum [6], 2.51 µM; in the data set with Plasmodium falciparum [7], 1.91 µM. For the same compound, the IC50 at 72 h in data set [3] is over 10 µM.

As for `O=C(NCc1ccc(OC(F)(F)F)cc1)N(CCN1CCCC1)[C@H]1CCCNC1`, the half-maximal inhibitory concentration (IC50) is 4.47 µM in the data set with Plasmodium falciparum [1], 5.37 µM in the data set on Plasmodium falciparum [5], over 10 µM in the data set with Plasmodium falciparum [6] and 4.57 µM with Plasmodium falciparum [7]. In data set [3], this compound returned an IC50 at 72 h of over 10 µM.

For the compound `OCCN1CCC(NCCc2cc(Cl)cc(Cl)c2)CC1`, the half-maximal inhibitory concentration (IC50) in the data set with Plasmodium falciparum [1] was 3.31 µM; in the data set on Plasmodium falciparum [5] it was 3.63 µM; in the data set with Plasmodium falciparum [6] it was 6.61 µM; with Plasmodium falciparum [7], 4.07 µM. Besides, the IC50 at 72 h in data set [3] is over 10 µM.

With `CCCN1CCC(Nc2cc(C)nc3ccccc23)CC1`, the half-maximal inhibitory concentration (IC50) in the data set on Plasmodium falciparum [1] amounted to 1.78 µM; in the data set on Plasmodium falciparum [5], 2.29 µM; in the data set with Plasmodium falciparum [6], 5.37 µM; in the data set on Plasmodium falciparum [7], 2.19 µM. Besides, the 50% inhibitory concentration (IC50) at 72 h in [3] is over 10 µM.

`CN(C[C@H](O)COc1ccccc1CN1CCC(c2ccncc2)CC1)C1CCCCC1`: the IC50 in the data set on Plasmodium falciparum [1] is 5.5 µM; in the data set with Plasmodium falciparum [5] it was 5.37 µM; with Plasmodium falciparum [6], over 10 µM; in the data set on Plasmodium falciparum [7], 5.89 µM. The IC50 at 72 h in [3] was over 10 µM.

With `NCC1(O)CCN(c2ccnc3cc(F)c(Cl)cc23)CC1`, the IC50 in the data set on Plasmodium falciparum [1] stood at 3.24 µM; with Plasmodium falciparum [5] it was 2.19 µM; in the data set with Plasmodium falciparum [6], 3.09 µM; in the data set on Plasmodium falciparum [7] it was 1.82 µM. For the same compound, the half-inhibitory concentration (IC50) at 72 h in data set [3] was over 10 µM.

Consider `Clc1ccc2[nH]c3c(c2c1)CCCC3NC1CCN(C2CCOC2)CC1` (configuration not stated), for which the IC50 with Plasmodium falciparum [1] came to 2.63 µM; in the data set with Plasmodium falciparum [5] it was 2.75 µM; with Plasmodium falciparum [6] it was 3.8 µM; with Plasmodium falciparum [7], 1.82 µM. The compound further had a half-inhibitory concentration (IC50) at 72 h in data set [3] of 10 µM.

Take `N[C@H]1CC[C@@H](NC2CCN(c3ccc(F)c(F)c3)CC2)CC1`: the IC50 in the data set on Plasmodium falciparum [1] worked out at 3.31 µM; in the data set with Plasmodium falciparum [5], 3.55 µM; in the data set on Plasmodium falciparum [6], 9.55 µM; in the data set on Plasmodium falciparum [7], 2.82 µM. For the same compound, the IC50 at 72 h in data set [3] came out at 7.76 µM.
